Columns and labels:
Format in all cases: in vivo, human
[1] = test system: patients with mild to moderate hypertension; assay: Eplerenone/HCTZ dose ranging factorial design study (Example D-2)
Experimental: Patients were assessed at weeks 0, 2, 4, and 8. Study assessments at protocol-specified timepoints included blood pressure (BP), heart rate, clinical laboratory analyses, vital signs, physical examinations, 12-lead ECG, and monitoring of adverse events. A total of 614 patients were randomized.

[2] = test system: older patients with systolic hypertension and/or widened pulse pressure; assay: Eplerenone versus amlodipine in systolic hypertension in older people, 24 weeks (Examples A-19, D-8)
Description: At Week 10 or thereafter, if SBP is =170 mmHg on two consecutive visits, one to three days apart, and the patient is on the maximum dose of study drug, he/she must be withdrawn. Patients will receive double-blind study medication for a total of 24 weeks. Table A-19A illustrates the above-described dosing scheme.
Heart rate, BP, serum potassium levels, concomitant medications and adverse events will be assessed at each visit. […] Special studies: collagen markers [aminoterminal propeptide of type III procollagen (PIIINP), 7S domain of type IV collagen (7SIVC), and type I collagen telopeptide (ICTP)], plasma […] (PAI-1), tissue plasminogen activator (t-PA), microalbuminuria, and at selected sites, Ambulatory Blood Pressure Monitoring (ABPM) and arterial compliance will be done at Weeks 0, 14, and 24 or at Final Visit. Quality of Life Questionnaires will be done at visit 2A (beginning of single blind) and Weeks 0, 14, and 24 or at Final Visit. DNA genotyping will be performed at baseline.
In older patients, elevated systolic BP and wide pulse pressure predict cardiovascular risk better than diastolic BP. Reduced vascular compliance and intraglomerular hypertension typically accompany isolated systolic hypertension in older people.
Changes in arterial compliance, measured by pulse-wave velocity, microalbuminuria, and adverse effects (AEs) were assessed at baseline and after 24 weeks of therapy.

[3] = test system: patients uncontrolled with BB or CCB monotherapy; assay: Eplerenone co-administration with CCB or beta-blocker, 8 weeks (Example D-10); details: for Diastolic Blood Pressure Responder Rates, Percentage of Patients Responding: seDBP <90 mmHg or ≧10 mmHg reduction
Experimental: This was a multicenter, double-blind, randomized, placebo-controlled, placebo run-in, parallel-group study. […] The dose was to be increased only once during the study. […] Study assessments at protocol-specified timepoints included BP, heart rate, clinical laboratory analyses, ECG, and concomitant medications. Throughout the study, safety was assessed by routine clinical laboratory analyses, vital signs, physical examinations, 12-lead ECG, and monitoring of adverse events. […] The study was designed to include 60 randomized patients in each group and each cohort.

[4] = test system: patients with hypertension; assay: Dose-ranging study of eplerenone vs placebo and spironolactone in hypertension (Examples A-14, D-1)
Experimental: A multicenter, randomized, double-blind, parallel group study was conducted in patients with hypertension. […] The study consisted of a two-week pretreatment period for completion of screening procedures and discontinuation of any current antihypertensive medication(s). The screening period was followed by a four-week single-blind placebo lead-in treatment period. Randomization was followed by an eight-week double-blind active or placebo treatment period. The primary efficacy measure was the change from baseline in cuff diastolic blood pressure measured at trough as compared to placebo. Secondary efficacy measures included changes in cuff assessed trough systolic blood pressure and changes in average 24-hour diastolic and systolic blood pressure assessed by ambulatory blood pressure monitoring. Safety was assessed by conducting routine clinical lab tests, physical exams, ECGs, and monitoring for adverse events. […] The adjusted mean change in blood pressure (mm Hg) from baseline to final visit is described in Table […].

[5] = test system: diabetic type 2 patients with hypertension and microalbuminuria; assay: Eplerenone, enalapril and combination in diabetic hypertensives with microalbuminuria, 24 weeks (Examples A-18, D-7)
[6] = eplerenone 25, 50 or 200 mg daily, HCTZ 12.5 or 25 mg daily, 8 weeks
[7] = after 24 weeks, titration-to-effect
[8] = eplerenone 50-100 mg QD, 8 weeks

`COC(=O)[C@@H]1CC2=CC(=O)CC[C@]2(C)[C@@]23O[C@@H]2C[C@@]2(C)[C@@H](CC[C@@]24CCC(=O)O4)[C@H]13` [Eplerenone, Pregn-4-ene-7,21-dicarboxylic acid, 9,11-epoxy-17-hydroxy-3-oxo-, γ-lactone, methyl ester, (7α, 11α, 17β)-] was tested, and the gynecomastia ([1]; eight weeks) was “Gynecomastia was not observed”, the safety and tolerability ([1]; eight weeks, monotherapy or in combination with HCTZ) was “safe and well tolerated” and the “DBP, change from Baseline to the Final Visit” value [1, 6] was “dose-dependent decreases in DBP”. For the same compound, the “SBP, change from Baseline to the Final Visit” value [1, 6] was “dose-dependent decreases in SBP”, the “Edema rates (%)” value ([2]; 24-week study) was 3.7% and the peripheral edema frequency ([2]; 24 weeks) was 3.7%. For the same compound, the “reduction in pulse pressure” value ([2]; 24 weeks) was −15.9 mmHg, the “symptoms with significant and clinically meaningful worsening in distress from Baseline (QoL)” value ([2]; 24 weeks) was “no worsening in distress” and the “reduction in SBP” value ([2]; 24 weeks, EPL 50-200 mg QD, AML 2.5-10 mg QD) was −20.5 mmHg. The “Pulse Pressure (change)” value [2, 7] was −15.9 ± 0.96 mmHg, the “Systolic BP (change)” value [2, 7] was −20.5 ± 1.14 mmHg and the safety and tolerability ([2]; in vivo) was “safe and well tolerated”. The “Δ microalbuminuria (%)” value ([2]; only for patients with baseline microalbuminuria (>30 mg/g), 24 weeks) was −52.3%, the “reduction in UACR” value ([2]; patients with baseline microalbuminuria (>30 mg/g)) was −27.1% and the “Diastolic Blood Pressure Responder Rates, Percentage of Patients Responding” value ([3]; BB Cohort, Week 2) was 48 (69.6%). For the same compound, the “Diastolic Blood Pressure Responder Rates, Percentage of Patients Responding” value ([3]; BB Cohort, Week 4) was 53 (76.8%), the “Diastolic Blood Pressure Responder Rates, Percentage of Patients Responding” value ([3]; BB Cohort, Week 6) was 56 (81.2%) and the “Diastolic Blood Pressure Responder Rates, Percentage of Patients Responding” value ([3]; BB Cohort, Week 8) was 52 (75.4%). For the same compound, the “Diastolic Blood Pressure Responder Rates, Percentage of Patients Responding” value ([3]; CCB Cohort, Week 2) was 40 (60.6%), the “Diastolic Blood Pressure Responder Rates, Percentage of Patients Responding” value ([3]; CCB Cohort, Week 4) was 51 (76.1%) and the “Diastolic Blood Pressure Responder Rates, Percentage of Patients Responding” value ([3]; CCB Cohort, Week 6) was 55 (82.1%). For the same compound, the “Diastolic Blood Pressure Responder Rates, Percentage of Patients Responding” value ([3]; CCB Cohort, Week 8) was 48 (71.6%), the safety and tolerability ([3]; add on anti-hypertensive agent) was “safe and well tolerated” and the “responders (seDBP <90 mmHg or ≧10 mmHg reduction from Baseline), CCB cohort” value ([3]; each timepoint, vs placebo) was “more patients who received eplerenone responded to treatment”. For the same compound, the “responders (seDBP <90 mmHg or ≧10 mmHg reduction from Baseline), BB cohort” value ([3]; each timepoint, vs placebo (p ≦0.011)) was “significantly greater proportions of patients who received eplerenone responded to treatment”, the “DBP and SBP, addition to a BB” value [3, 8] was “efficacious in reducing DBP and SBP” and the “SBP, addition to a CCB” value [3, 8] was “efficacious in reducing SBP”. For the same compound, the gynecomastia ([4]; 50-400 mg daily, 8 weeks) was “no reports of gynecomastia”, the safety and tolerability ([4]; 50-400 mg daily, QD or divided doses) was “safe and well tolerated” and the “DBP and SBP vs. placebo” value ([4]; wide range of doses, regardless of assessment method (FIG. D-1, D-2)) was “significant reductions”. The “patients withdrawn for hyperkalemia” value ([5]; 24 weeks) was 6 patients, the “reduction in microalbuminuria (UACR)” value ([5]; 24 weeks) was “greater reduction in microalbuminuria than enalapril” and the “subjects with elevated K+ (≧6.0 mEq/L)” value ([5]; 24 weeks) was 8 subjects. For the same compound, the “patients requiring addition of hydrochlorothiazide (HCTZ)” value ([5]; EPL 200 mg QD, ENAL 40 mg QD, EPL 200 mg/ENAL 10 mg, 24 weeks) was 36/84, the “Adjusted mean change ΔDBP (Week 8-baseline)” value ([5]; Week 8) was −10.2 and the “Adjusted mean change ΔSBP (Week 8-baseline)” value ([5]; Week 8) was −13.5. For the same compound, the “Adjusted mean change ΔDBP (Week 24-baseline)” value ([5]; Week 24) was −13.2, the “Adjusted mean change ΔSBP (Week 24-baseline)” value ([5]; Week 24) was −19.5 and the tolerability ([5]; in vivo) was “well tolerated”.

Reference: patent US20070191324A1, “Methods for treatment or prophylaxis of aldosterone-mediated pathogenic effects in a subject using an epoxy-steroidal aldosterone antagonist” (priority 1999, published 2007)
